The numbers were not newly measured in US20080233201A1, “Method for Preparing Calibrated Biodegradable Microspheres” (priority 2004, published 2008), which cites them from elsewhere.

The conditions of this series: at 20° C.

In the case of `CCOC(C)=O` [Ethyl acetate], the solubility in water is 8.7 g/100 g of water.
